The source made the active and inactive calls. The rule behind the calls is not given here.
Legend:
[1] = tested on: Quadruplex DNA; assay: Stabilization of c-Myc G4 quadruplex DNA (unknown origin) assessed as temperature at which 50% protein unfold by circular dichroism melting assay; type: nucleic-acid assay
[2] = tested on: HeLa; assay: Cytotoxicity against human HeLa cells assessed as reduction in cell viability by CCK8 assay; type: functional, cell-based
[3] = tested on: Quadruplex DNA; assay: Stabilization of c-MYC G4 quadruplex DNA Pu22 (unknown origin) assessed as temperature at which 50% protein unfold by circular dichroism melting assay; type: nucleic-acid assay
[4] = tested on: Quadruplex DNA; assay: Stabilization of c-MYC G4 quadruplex DNA (unknown origin) assessed as change in temperature incubated for 2 hrs in presence of HRAS by FRET assay; type: nucleic-acid assay
[5] = tested on: Quadruplex DNA; assay: Stabilization of c-MYC G4 quadruplex DNA (unknown origin) assessed as change in temperature incubated for 2 hrs in presence of duplex DNA by FRET assay; type: nucleic-acid assay
[6] = tested on: MDA-MB-231; assay: Downregulation of c-MYC protein expression in human MDA-MB-231 cells at 1 to 4 uM measured after 24 hrs by Western blot analysis; type: functional, cell-based; settings: dose 1-4 µM
[7] = tested on: HEK293; assay: Downregulation of c-MYC expression in human HEK293 cells transfected with psiCHECK2 luciferase plasmid at 1 to 4 uM incubated for 24 hrs by dual luciferase reporter assay; type: functional, cell-based; settings: dose 1-4 µM
[8] = tested on: MDA-MB-231; assay: Upregulation of phosphorylated Chk2 in human MDA-MB-231 cells at 1 to 4 uM measured after 24 hrs by Western blot analysis; type: functional, cell-based; settings: dose 1-4 µM
[9] = tested on: MDA-MB-231; assay: Induction of cell cycle arrest in human MDA-MB-231 cells assessed as accumulation of cells at sub-G1 phase at 1 uM incubated for 24 hrs by propidium iodide staining based flow cytometry analysis (reference value: 0.57%); type: functional
[10] = tested on: MDA-MB-231; assay: Induction of cell cycle arrest in human MDA-MB-231 cells assessed as accumulation of cells at sub-G1 phase at 2 uM incubated for 24 hrs by propidium iodide staining based flow cytometry analysis (reference value: 0.57%); type: functional
[11] = tested on: MDA-MB-231; assay: Induction of cell cycle arrest in human MDA-MB-231 cells assessed as accumulation of cells at S phase at 2 uM incubated for 24 hrs by propidium iodide staining based flow cytometry analysis (reference value: 15.50%); type: functional
[12] = tested on: MDA-MB-231; assay: Induction of cell cycle arrest in human MDA-MB-231 cells assessed as accumulation of cells at G2/M phase at 2 uM incubated for 24 hrs by propidium iodide staining based flow cytometry analysis (reference value: 17.58%); type: functional
[13] = tested on: MDA-MB-231; assay: Induction of cell cycle arrest in human MDA-MB-231 cells assessed as accumulation of cells at G0/G1 phase at 4 uM incubated for 24 hrs by propidium iodide staining based flow cytometry analysis (reference value: 66.35%); type: functional
[14] = tested on: MDA-MB-231; assay: Induction of cell cycle arrest in human MDA-MB-231 cells assessed as accumulation of cells at S phase at 4 uM incubated for 24 hrs by propidium iodide staining based flow cytometry analysis (reference value: 15.50%); type: functional
[15] = tested on: MDA-MB-231; assay: Induction of cell cycle arrest in human MDA-MB-231 cells assessed as upregulation of p21 accumulation at 1 to 4 uM measured after 24 hrs by Western blot analysis; type: functional, cell-based; settings: dose 1-4 µM
[16] = tested on: MDA-MB-231; assay: Induction of cell cycle arrest in human MDA-MB-231 cells assessed as downregulation of Cdc2 expression at 1 to 4 uM incubated for 24 hrs by Western blot analysis; type: functional, cell-based; settings: dose 1-4 µM
[17] = tested on: MDA-MB-231; assay: Induction of cell cycle arrest in human MDA-MB-231 cells assessed as downregulation of cyclin B expression at 1 to 4 uM incubated for 24 hrs by Western blot analysis; type: functional, cell-based; settings: dose 1-4 µM
[18] = tested on: MDA-MB-231; assay: Induction of apoptosis in human MDA-MB-231 cells assessed as increase in late apoptotic cells at 1 to 4 uM incubated for 24 hrs by Annexin-V FITC/PI double staining based flow cytometry analysis; type: functional, cell-based; settings: dose 1-4 µM
[19] = tested on: MDA-MB-231; assay: Induction of apoptosis in human MDA-MB-231 cells assessed as decrease in necrotic cells at 1 to 4 uM incubated for 24 hrs by Annexin-V FITC/PI double staining based flow cytometric analysis; type: functional, cell-based; settings: dose 1-4 µM
[20] = tested on: MDA-MB-231; assay: Induction of apoptosis in human MDA-MB-231 cells assessed as caspase-9 cleavage at 1 to 4 uM incubated for 24 hrs by Western blot analysis; type: functional, cell-based; settings: dose 1-4 µM
[21] = tested on: MDA-MB-231; assay: Cytotoxicity against human MDA-MB-231 cells assessed as inhibition of cell growth at 0 to 20 uM incubated for 24 hrs by CCK-8 assay; type: functional, cell-based; settings: MDA-MB-231, 24 h
[22] = tested on: MDA-MB-231; assay: Inhibition of colony formation in human MDA-MB-231 cells assessed as reduction in number of visible cell colonies at 0.1 to 0.4 uM measured after 14 days by crystal violet based staining analysis; type: functional; settings: dose 0.1-0.4 µM, time 14.0 day
[23] = tested on: MDA-MB-231; assay: Inhibition of cell migration in human MDA-MB-231 cells assessed as reduction in migration at 1 to 4 uM measured after 24 to 48 hrs by wound healing assay; type: functional, cell-based; settings: dose 1-4 µM, time 24-48 hrs
[24] = tested on: MDA-MB-231; assay: Inhibition of cell migration in human MDA-MB-231 cells assessed as reduction in migration at 1 to 4 uM measured after 24 hrs by transwell migration assay; type: functional, cell-based; settings: dose 1-4 µM
[25] = Cytotoxicity against human MCF-10A cells assessed as inhibition of cell proliferation by CCK-8 assay; type: toxicity, cell-based
[26] = Toxicity in BALB/c mouse xenografted with human MDA-MB-231 cells assessed as effect on body weight at 5 mg/kg, ip administered every other day for 20 days and measured every 4 days; type: organism-based; settings: in vivo, 480 h, time 20 day
[27] = Toxicity in BALB/c mouse xenografted with human MDA-MB-231 cells assessed as discomfort at 5 mg/kg, ip administered every other day for 20 days and measured every 4 days; type: organism-based; settings: in vivo, 480 h, time 20 day
[28] = Toxicity in BALB/c mouse xenografted with human MDA-MB-231 cells assessed as effect on heart at 5 mg/kg, ip administered every other day for 20 days and measured every 4 days; type: organism-based; settings: in vivo, 480 h, time 20 day
[29] = Toxicity in BALB/c mouse xenografted with human MDA-MB-231 cells assessed as effect on liver at 5 mg/kg, ip administered every other day for 20 days and measured every 4 days; type: organism-based; settings: in vivo, 480 h, time 20 day
[30] = Toxicity in BALB/c mouse xenografted with human MDA-MB-231 cells assessed as effect on kidney at 5 mg/kg, ip administered every other day for 20 days and measured every 4 days; type: organism-based; settings: in vivo, 480 h, time 20 day
[31] = tested on: MDA-MB-231; assay: Antitumor activity against human MDA-MB-231 cells xenografted in BALB/c mouse assessed as reduction in c-MYC expression at 5 mg/kg, ip administered every other day for 20 days and measured every 4 days by immunohistochemistry analysis; type: functional, organism-based; settings: time 20.0 day
[32] = Toxicity in BALB/c mouse xenografted with human MDA-MB-231 cells assessed as pain at 5 mg/kg, ip administered every other day for 20 days and measured every 4 days; type: organism-based; settings: in vivo, 480 h, time 20 day
[33] = tested on: dsDNA; assay: Stabilization of duplex DNA (unknown origin) assessed as change in melting temperature by circular dichroism melting assay
[34] = tested on: Quadruplex DNA; assay: Stabilization of c-MYC G4 quadruplex DNA KRAS (unknown origin) assessed as shift in temperature at which 50% protein unfold by circular dichroism melting assay

CN1CCN(c2ccc(-c3nc(-c4ccc(-c5ccc(C(F)(F)F)cc5)cc4)[nH]c3-c3ccc(N4CCN(C)CC4)cc3)cc2)CC1
T [1]: 34.6 °C
IC50 [2]: 2.69 µM
T [3]: 34.6 °C
Activity [4]: Active
Activity [5]: Active
Activity [6]: Active
Activity [7]: Active
Activity [8]: Active
Activity [9]: 0.66%
Activity [10]: 0.68%
Activity [11]: 11.56%
Activity [12]: 11.35%
Activity [13]: 18.23%
Activity [14]: 6.09%
Activity [15]: Active
Activity [16]: Active
Activity [17]: Active
Activity [18]: Active
Activity [19]: inactive
Activity [20]: Active
IC50 [21]: 1.84 µM
inhibition [22]: Active
inhibition [23]: Active
inhibition [24]: Active
IC50 [25]: 8.7 µM
Activity [26]: Non-Toxic
Activity [27]: Non-Toxic
Activity [28]: Non-Toxic
Activity [29]: Non-Toxic
Activity [30]: Non-Toxic
Activity [31]: Active
Activity [32]: Non-Toxic
ΔTm [33]: 0 °C
ΔTm [34]: 11.2 °C

Source: ChEMBL document CHEMBL5380876, “Non-fused imidazole-biphenyl analogs repress triple-negative breast cancer growth by mainly stabilizing the c-MYC G-quadruplex via a multi-site binding mode” (Bioorg Med Chem, 2023)
